In the Kinase Knowledgebase extract (Sharma et al. 2016):
≈ marks a conversion by molar mass, not a printed value.

What was measured:
MAPK14 [1] = molecular target: MAPK14 (UniProt Q16539); assay: MAPK Kinase Inhibition
EGFR (murine) [2] = molecular target: EGFR (murine) (UniProt P00533); details: nih3t3/c7
MAPK14 [3] = molecular target: MAPK14 (UniProt Q16539); assay: Inhibition of MAPK14 Kinase Activity
MAPK14 [4] = molecular target: MAPK14 (UniProt Q16539); assay: Inhibition of TNF-alpha Production
EGFR (human) [5] = molecular target: EGFR (human) (UniProt P00533)
EGFR (human) [6] = molecular target: EGFR (human) (UniProt P00533); details: hn5
CDK2 = CDK2 (UniProt P24941); assay: Enzyme Assay
EGFR [7] = molecular target: EGFR (UniProt P00533)
EGFR [8] = molecular target: EGFR (UniProt P00533); remark: listed apart in the source
EGFR [9] = molecular target: EGFR (UniProt P00533); remark: listed apart in the source
EGFR [10] = molecular target: EGFR (UniProt P00533); assay: Inhibition of EGFr Enzyme
EGFR [11] = molecular target: EGFR (UniProt P00533); remark: listed apart in the source
EGFR [12] = molecular target: EGFR (UniProt P00533); details: concentration not given here
EGFR [13] = molecular target: EGFR (UniProt P00533); remark: listed apart in the source
EGFR (mouse) [14] = molecular target: EGFR (mouse) (UniProt P00533); details: Swiss 3T3
MAPK14 (human) [15] = molecular target: MAPK14 (human) (UniProt Q16539); assay: p38-alpha Kinase Inhibition
ROCK2 (rat) = ROCK2 (rat) (UniProt Q62868); assay: ROCK-II Kinase Inhibition; details: concentration not given here
EGFR (human) [16] = molecular target: EGFR (human) (UniProt P00533); details: a431
EGFR (human) [17] = molecular target: EGFR (human) (UniProt P00533); remark: listed apart in the source
MAPK14 (Drosophila) = assay: p38 Kinase Inhibition; details: sf9
MAPK14 [18] = molecular target: MAPK14 (UniProt Q16539); assay: Cascade Assay for Inhibitors of the MAP Kinase Pathway
EGFR [19] = molecular target: EGFR (UniProt P00533); details: balb/c 3t3
MAPK14 [20] = molecular target: MAPK14 (UniProt Q16539); assay: CSBP Inhibition
EGFR [21] = molecular target: EGFR (UniProt P00533); remark: listed apart in the source
EGFR (mouse) [22] = molecular target: EGFR (mouse) (UniProt P00533); details: balb/mk
MAPK14 (human) [23] = molecular target: MAPK14 (human) (UniProt Q16539); assay: TNFalpha Inhibition; details: pbmc
ROCK2 = ROCK2 (UniProt O75116); assay: Inhibition of ROCK-II Kinase Activity; details: concentration not given here
EGFR [24] = molecular target: EGFR (UniProt P00533); remark: listed apart in the source
EGFR (murine) [25] = molecular target: EGFR (murine) (UniProt P00533); details: nih3t3
EGFR [26] = molecular target: EGFR (UniProt P00533); remark: listed apart in the source
EGFR (murine) [27] = molecular target: EGFR (murine) (UniProt P00533); details: f/l-herc

Sequence of EGFR (P00533 whole entry, looked up): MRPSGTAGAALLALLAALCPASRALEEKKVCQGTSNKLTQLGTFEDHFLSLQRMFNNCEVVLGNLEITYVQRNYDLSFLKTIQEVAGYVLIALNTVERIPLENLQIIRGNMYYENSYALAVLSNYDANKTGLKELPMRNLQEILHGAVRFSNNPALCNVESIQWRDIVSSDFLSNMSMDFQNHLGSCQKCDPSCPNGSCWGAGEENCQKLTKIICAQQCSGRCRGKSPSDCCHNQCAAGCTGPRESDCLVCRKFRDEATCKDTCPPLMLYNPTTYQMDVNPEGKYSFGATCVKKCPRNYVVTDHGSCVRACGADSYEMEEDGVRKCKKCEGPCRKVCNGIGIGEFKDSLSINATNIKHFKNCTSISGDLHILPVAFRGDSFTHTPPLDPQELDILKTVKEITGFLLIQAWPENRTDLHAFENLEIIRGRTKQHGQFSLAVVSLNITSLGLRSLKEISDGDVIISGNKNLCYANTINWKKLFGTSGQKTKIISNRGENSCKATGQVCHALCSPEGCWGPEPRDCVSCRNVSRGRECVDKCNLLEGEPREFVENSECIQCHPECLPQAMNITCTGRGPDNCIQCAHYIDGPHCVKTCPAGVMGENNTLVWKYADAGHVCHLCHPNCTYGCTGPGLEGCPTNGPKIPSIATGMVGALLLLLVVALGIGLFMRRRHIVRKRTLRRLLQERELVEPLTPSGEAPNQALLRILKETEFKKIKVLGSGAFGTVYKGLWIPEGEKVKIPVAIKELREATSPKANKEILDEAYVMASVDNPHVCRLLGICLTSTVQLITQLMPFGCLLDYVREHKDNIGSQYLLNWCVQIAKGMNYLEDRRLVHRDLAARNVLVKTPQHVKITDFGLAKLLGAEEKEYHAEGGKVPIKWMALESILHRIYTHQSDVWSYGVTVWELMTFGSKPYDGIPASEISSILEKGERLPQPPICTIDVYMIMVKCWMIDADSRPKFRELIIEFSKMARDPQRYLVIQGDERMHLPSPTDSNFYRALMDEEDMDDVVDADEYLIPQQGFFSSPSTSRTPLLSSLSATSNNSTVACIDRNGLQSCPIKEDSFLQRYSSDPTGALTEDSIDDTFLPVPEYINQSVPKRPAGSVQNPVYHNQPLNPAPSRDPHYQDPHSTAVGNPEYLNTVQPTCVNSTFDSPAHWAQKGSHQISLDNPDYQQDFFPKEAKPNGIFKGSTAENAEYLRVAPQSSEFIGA
Sequence of EGFR (human) (P00533 whole entry, looked up): as above
Sequence of EGFR (murine) (P00533 whole entry, looked up): as above
Sequence of MAPK14 (human) (Q16539 whole entry, looked up): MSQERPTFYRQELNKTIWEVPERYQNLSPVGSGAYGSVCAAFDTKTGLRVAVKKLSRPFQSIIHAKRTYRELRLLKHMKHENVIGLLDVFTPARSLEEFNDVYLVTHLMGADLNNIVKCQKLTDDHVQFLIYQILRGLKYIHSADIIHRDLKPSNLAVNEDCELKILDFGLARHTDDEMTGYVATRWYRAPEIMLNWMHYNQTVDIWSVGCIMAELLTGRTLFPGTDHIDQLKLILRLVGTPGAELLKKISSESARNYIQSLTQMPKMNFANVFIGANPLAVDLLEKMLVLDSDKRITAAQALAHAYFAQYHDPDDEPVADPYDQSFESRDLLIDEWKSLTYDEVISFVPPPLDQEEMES
Sequence of MAPK14 (Q16539 whole entry, looked up): as above

SMILES: COc1cc(OC)cc(-c2cc3cnc(N)nc3nc2NC(=O)NC(C)(C)C)c1
- IC50 (MAPK14 [1]): > 50 µM

SMILES: COC(=O)CCc1c(C)c[nH]c1C=C1C(=O)Nc2ccccc21
- IC100 (EGFR (murine) [2]): 100 µM

SMILES: CN1CC2CCC1CC2Nc1cc2c(ccc(=O)n2-c2c(Cl)cccc2Cl)c(-c2ccccc2Cl)n1 (stereo unspecified)
- IC50 (MAPK14 [3]): 0.4 nM
- IC50 (MAPK14 [4]): 24 nM

SMILES: Clc1cccc(Nc2cncc(-c3cncc(NCCCc4ccncc4)c3)n2)c1
- IC50 (EGFR (human) [5]): > 100 µM

SMILES: Clc1cccc(Nc2cncc(-c3cncc(NCCCN4CCCCC4)c3)n2)c1
- IC50 (EGFR (human) [5]): > 100 µM

SMILES: CS(=O)(=O)CCNCCCCOc1ccc2ncnc(Nc3ccc(F)c(Cl)c3)c2c1
- IC50 (EGFR (human) [6]): 71 nM

SMILES: CNC(=O)N1CCN(Cc2ccnc(Nc3ncc(C#N)s3)c2C)CC1
- IC50 (CDK2): 13.7 µM
- IC50 (EGFR [7]): > 19.2 µM

SMILES: O=C1NC(=O)C(c2cn(CCOCCO)c3ccccc23)=C1c1c[nH]c2ccccc12
- inhibition (EGFR [8]): 0

SMILES: COc1cc2c(NC3=CC(=O)C(OC(CF)CF)=CC3=O)ncnc2cc1OCC1CCN(C)CC1
- IC50 (EGFR [9]): 1.8 to 117 µM

SMILES: CNc1cc2ncnc(Nc3cccc(Br)c3)c2cn1
- IC50 (EGFR [10]): 0.13 nM
- IC50 (EGFR [11]): 16 nM

SMILES: O=C1NCc2c1c1c3ccc(O)cc3[nH]c1c1[nH]c3ccccc3c21
- inhibition (EGFR [12]): 50 to 80%

SMILES: Cc1cccc(Nc2ncnc3cc(NCCCN4CCCCC4)ncc23)c1
- IC50 (EGFR [10]): 5.6 nM

SMILES: C/C(O)=C(\C#N)C(=O)Nc1cc(Br)ccc1Br
- IC50 (EGFR [13]): > 278 µM
- Ki (EGFR [13]): 166 µM

SMILES: Cc1nc2cc3nc(-c4cccs4)cnc3cc2n1C
- IC50 (EGFR (mouse) [14]): > 30 µM

SMILES: NC(=O)c1ccc(-c2nc(-c3ccc4c(c3)OCCO4)c(-c3ccccn3)[nH]2)cc1
- IC50 (MAPK14 (human) [15]): 12 µM
- activity (MAPK14 (human) [15]; concentration not given here): 56%
- activity (ROCK2 (rat)): 96%

SMILES: CC(C)(C)c1cc(C=C(C#N)C#N)cc(C(C)(C)C)c1O
- IC50 (EGFR (human) [16]): 0.1 µM

SMILES: CCOc1cc2ncc(C#N)c(Nc3ccc(F)c(Cl)c3)c2cc1NC(=O)CC(CN(C)C)SCC(NC(=O)CC[C@@H](N)C(=O)O)C(=O)NCC(=O)O (stereo partly specified)
- IC50 (EGFR (human) [17]): 1.7 µg/mL (≈ 2.19 µM)

SMILES: Cc1cc(F)ccc1-c1nc(N(C(N)=O)c2c(F)cccc2F)ccc1CO
- IC50 (MAPK14 (Drosophila)): 27 nM

SMILES: CN(Cc1cccnc1)S(=O)(=O)c1cc(C(=O)O)c(Nc2ccc(I)cc2Cl)c(F)c1F
- IC50 (MAPK14 [18]): > 3000 nM

SMILES: Clc1cccc(Nc2ncnc3[nH]c4ccccc4c23)c1
- IC50 (EGFR [19]): 100 nM

SMILES: COc1ccc(CN(Cc2ccc(OC)cc2)S(=O)(=O)c2cc(C(=O)O)c(Nc3ccc(I)cc3Cl)c(F)c2F)cc1
- IC50 (MAPK14 [18]): 3000 nM

SMILES: CC(=O)OCCCCc1nc(-c2ccc(F)cc2)c(-c2ccncc2)n1COCC[Si](C)(C)C
- inhibition (MAPK14 [20]; concentration not given here): 74%

SMILES: CNC(=O)N1CCN(Cc2ccnc(Nc3ncc(C#N)s3)c2)CC1
- IC50 (CDK2): 3.94 µM
- IC50 (EGFR [7]): > 19.2 µM

SMILES: Brc1cccc(Nc2ncnc3cc4c(cc23)OCO4)c1
- IC50 (EGFR [21]): 15 nM

SMILES: CC(C)(C)NC(=O)Nc1nc2nc(N)ncc2cc1-c1c(Cl)cccc1Cl
- IC50 (MAPK14 [1]): 7.1 µM

SMILES: CC(C)(C)c1cc(C=C(C#N)C(N)=S)cc(C(C)(C)C)c1
- IC50 (EGFR (human) [16]): 20 µM

SMILES: Clc1cccc(Nc2ncnc3[nH]c(-c4ccccc4)c(-c4ccccc4)c23)c1
- IC50 (EGFR (mouse) [22]): > 50 µM

SMILES: Cc1ccc(NC(=O)c2ccnc(N3CCOCC3)c2)cc1-n1cnc2ccc(N(C)CCCN(C)C)cc2c1=O
- IC50 (MAPK14 (human) [23]): 2000 nM

SMILES: Brc1c(Br)c(Br)c2[nH]nnc2c1Br
- inhibition (ROCK2): 9%
- inhibition (MAPK14 [3]; concentration not given here): -7%

SMILES: COc1cc2cc(C3C=CC=C3)cnc2cc1OC
- IC50 (EGFR [24]): > 20 µM

SMILES: Cc1cc(C)c(C)c(-c2cc3cnc(N)nc3nc2NC(=O)NC(C)(C)C)c1C
- IC50 (MAPK14 [1]): > 50 µM

SMILES: O=C1Nc2ccccc2/C1=C/c1ccccc1
- IC50 (EGFR (murine) [25]): > 100 µM

SMILES: CN(C)c1cc2ncnc(Nc3cccc(Br)c3)c2cn1
- IC50 (EGFR [10]): 0.09 nM
- IC50 (EGFR [11]): 14 nM

SMILES: Cc1cccc(Nc2ncnc3[nH]c4c(c23)CCCC4)c1
- IC50 (EGFR (mouse) [22]): > 50 µM

SMILES: CCS(=O)(=O)c1ccc(OC)c(Nc2ncc(-c3cccc(-c4ccccc4F)c3)o2)c1
- IC50 (MAPK14 [3]): > 10000 nM
- IC50 (EGFR [26]): > 10 µM

SMILES: COc1ccc(OC)c(/C=C2\C(=O)Nc3ccccc32)c1
- IC50 (EGFR (murine) [25]): 11 µM

SMILES: CN1C2CC[C@@]1(Nc1ncc3ncnc(Nc4ccc(F)c(Cl)c4)c3n1)CC(O)C2 (stereo partly specified)
- IC50 (EGFR (murine) [27]): > 10 µM

SMILES: Cc1nc2cc3nc(-c4ccccc4)cnc3cc2n1C
- IC50 (EGFR (mouse) [14]): > 30 µM

SMILES: Cc1cc(F)ccc1-c1nc(N(C(N)=O)c2c(Cl)cccc2Cl)ccc1CO
- IC50 (MAPK14 (Drosophila)): 2 nM

SMILES: CCOC(=O)CCc1c(C=C2C(=O)Nc3ccccc32)[nH]c(C(=O)OCC)c1CC(=O)OCC
- IC50 (EGFR (murine) [2]): 50 µM

SMILES: C[S+]([O-])c1ccc(-c2ncn(C3CCN(CCC(=O)O)CC3)c2-c2ccnc([S+](C)[O-])n2)cc1 (stereo unspecified)
- IC50 (MAPK14 [20]): > 50 µM
